In patent US9227979B2, “Fluorescent antagonists of the A3 adenosine receptor” (The United States of America, as represented by the …, priority 2012, dated 2016):
Counter-ions that a name gives are not always drawn. Like-named read-outs stand apart in the source and are kept apart here.

Assays:
A1AR = A1AR (Homo sapiens (Human), UniProt P30542); assay: FCM binding of fluorescent ligand to CHO cells expressing the A1AR
Procedure: (§1) Chinese hamster ovary (CHO) cells without heterologous AR expression were grown in DMEM/F12 (1:1) medium with 10% FBS, 2 mM L-glutamine, 50 U/ml penicillin/streptomycin. CHO cells expressing the A1 or A3 AR and HEK293 cells expressing the A2A AR were grown in the same medium but in the presence of 500 μg/ml hygromycin B and 800 μg/ml of G418, respectively. Cells, used for FCM analysis, were grown in 6-well plates (approximately 400,000 cells/well) and incubated at 37° C. for 24 h in the presence of 5% CO2. When confluency of the cells was reached 80% (approximately 10^6 cells/well), medium was replaced with fresh medium and MRS5449 was added in the presence or absence of competitive antagonists, and cells were processed for FCM.
(§2) The intensity of fluorescence emission of each sample was measured by using FCM. Cell suspensions were vortexed briefly before analysis on a Becton and Dickinson FACSCalibur flow cytometer (BD, Franklin Lakes, N.J.) with excitation at 488 nm. Samples were maintained in the dark during the analysis to avoid photobleaching. MFIs were obtained in the FL-1 channel in log mode. Ten thousand events were analyzed per sample. Data were collected using Cell Quest Pro software (BD, Franklin Lakes, N.J.) and analyzed by Cyflogic v. 1.2.1 software (CyFlo, Ltd., Turku, Finland).

A2AAR = A2AAR (Homo sapiens (Human), UniProt P29274); assay: FCM binding of fluorescent ligand to HEK cells expressing the A2AAR
Chain of A2AAR (P29274 whole entry): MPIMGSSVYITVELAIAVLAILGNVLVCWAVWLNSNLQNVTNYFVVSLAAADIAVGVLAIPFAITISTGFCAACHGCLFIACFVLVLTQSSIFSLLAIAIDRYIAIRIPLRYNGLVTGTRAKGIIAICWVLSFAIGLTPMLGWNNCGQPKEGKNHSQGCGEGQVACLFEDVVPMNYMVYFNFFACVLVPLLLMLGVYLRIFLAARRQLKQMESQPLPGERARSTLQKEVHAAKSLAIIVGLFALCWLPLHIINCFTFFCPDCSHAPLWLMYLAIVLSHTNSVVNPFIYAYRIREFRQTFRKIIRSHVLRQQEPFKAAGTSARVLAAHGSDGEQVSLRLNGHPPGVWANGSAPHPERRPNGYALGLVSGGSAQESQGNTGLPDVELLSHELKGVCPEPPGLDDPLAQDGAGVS
Procedure: as §1, §2

hA3AR [1] = target: T1, hA3AR (Homo sapiens (Human), UniProt P0DMS8); assay: Fluorescent ligand binding by FCM in intact CHO cells expressing the hA3AR (preliminary, saturation, kinetics)
T1 sequence (P0DMS8 whole entry): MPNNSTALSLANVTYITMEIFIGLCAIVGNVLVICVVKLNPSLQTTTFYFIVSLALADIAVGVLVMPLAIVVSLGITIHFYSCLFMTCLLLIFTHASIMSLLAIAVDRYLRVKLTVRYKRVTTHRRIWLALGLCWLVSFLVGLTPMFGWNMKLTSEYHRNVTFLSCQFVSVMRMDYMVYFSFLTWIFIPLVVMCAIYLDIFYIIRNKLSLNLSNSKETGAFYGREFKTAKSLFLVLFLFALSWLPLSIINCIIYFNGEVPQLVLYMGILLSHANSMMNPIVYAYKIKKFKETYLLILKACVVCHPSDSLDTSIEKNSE
Procedure: In preliminary binding experiments of compounds 1-6 and MRS5449 were incubated with CHO cells expressing the hA3AR for 1 h at 37° C. in an atmosphere containing 5% CO2. The concentrations used were incubated with 1.5 μM 1, 5 μM 2, 1.5 μM 3, 10 μM 4, 20 μM 5, 15 μM 6, or 10 nM MRS5449. For further binding experiments with MRS5449, control CHO cells (CHO cells without heterologous receptor expression) and CHO cells expressing hA3AR were incubated with 10 nM MRS5449 for 3 h.
In saturation binding experiments, CHO cells expressing the hA3AR were incubated with concentrations of MRS5449 ranging from 2.5 nM to 250 nM for 1 h. To study binding kinetics of MRS5449, CHO cells expressing the hA3AR were incubated with 10 nM MRS5449 for different time intervals from 5 min to 3 h. The association and dissociation rate was measured as follows: 10 nM MRS5449 was added to CHO cells expressing the A3AR and measured total binding at different time intervals. After 90 min, dissociation was initiated by adding 10 μM of non-fluorescent A3AR antagonist MRS1220 and then measured the dissociation at different time intervals.
(§3) At the end of each time interval, the medium was removed and cells were washed three times with ice-cold DPBS. After washing, 1 ml 0.2% EDTA solution was added to each well, and cells were incubated at 37° C. for 7 min. Following cell detachment, 1 ml medium was added to each well to neutralize the EDTA. The cell suspensions were transferred to polystyrene round-bottom BD Falcon tubes (BD, Franklin Lakes, N.J.) and centrifuged for 5 min at 23° C. and 400×g. After centrifugation, the supernatant was discarded, and cells were washed with 3 ml PBS and centrifuged again at 23° C. and 400×g for 5 min. After discarding the supernatant, cells were suspended in 0.5 ml PBS and analyzed by FCM.
The mean fluorescence intensity (MFI) values of the standard particles were recorded under optimized instrument setting and converted into MESF values using the QuickCal program v. 2.3 (Bangs Laboratories, Inc., Fishers, Ind.). MFIs of receptor-bound fluorescent small molecules in this study were measured under exactly the same conditions and the assigned MESF values were extrapolated from the calibration curve.
as §2
Data analysis was performed with the Prism 5 (GraphPad, San Diego Calif.) software. The mean autofluorescence of CHO cells was measured in the absence of the fluorescent ligand. The mean fluorescence in the presence of fluorescent ligand was corrected by subtracting this value; Wood, J C S, Curr Protoc Cytom 2009; 1.4.1-1.4.14.

hA2AAR = hA2AAR (Homo sapiens (Human), UniProt P29274); assay: Radioligand membrane binding assay at hA2A AR ([3H]CGS21680); conditions: read-out: A2A Ki
Chain of hA2AAR (P29274 whole entry): as the sequence (P29274 whole entry) above
Procedure: (§4) For cell cultures used in radioligand binding assays, after harvest and homogenization, the cells were centrifuged at 200×g for 10 min, and the pellet was re-suspended in 50 mM Tris-HCl buffer (pH 7.5), containing 10 mM MgCl2. The suspension was homogenized with an electric homogenizer for 10 s and was then re-centrifuged at 20,000×g for 20 min at 4° C. The resultant membrane pellets were resuspended in buffer in the presence of 3 units/ml adenosine deaminase, and the suspension was stored at −80° C. until the binding experiments. The protein concentration was measured using the Bradford assay. Radioligand membrane binding assays

hA3AR [2] = target: T1, hA3AR; assay: Radioligand membrane binding assay at hA3AR ([125I]I-AB-MECA); conditions: for Ki: read-out: A3 Ki
Procedure: as §4

A3AR = A3AR (Homo sapiens (Human), UniProt P0DMS8); assay: Cyclic AMP accumulation assay, antagonism of Cl-IB-MECA (Schild analysis); format: cell-based; conditions: inhibition of forskolin-stimulated cyclic AMP by Cl-IB-MECA in CHO cells expressing the A3AR
Chain of A3AR (P0DMS8 whole entry): as the sequence (P0DMS8 whole entry) above
Procedure: CHO cells stably expressing the hA3AR were seeded in 24-well plates and incubated at 37° C. overnight. The medium was removed the following day and replaced with DMEM containing 50 mM HEPES, 10 μM rolipram, 3 units/ml adenosine deaminase (Worthington Biochemical Corp., Lakewood, N.J.), and increasing concentrations of agonists and incubated for […]. Forskolin (10 μM) was added and incubated for an additional 15 min. The medium was removed, and the cells were lysed with 200 μL of 0.1 M HCl. 100 μl of the HCl solution was used in the Sigma Direct cAMP Enzyme Immunoassay following the instructions provided with the kit. The OD values were measured with a SpectraMax M5 Microplate reader (Molecular Devices, Sunnyvale, Calif.) at 405 nm.

hA1 AR = hA1 AR (Homo sapiens (Human), UniProt P30542); assay: Radioligand membrane binding assay at hA1 AR ([3H]R-PIA); conditions: for Ki: read-out: A1 Ki
Chain of hA1 AR (P30542 whole entry): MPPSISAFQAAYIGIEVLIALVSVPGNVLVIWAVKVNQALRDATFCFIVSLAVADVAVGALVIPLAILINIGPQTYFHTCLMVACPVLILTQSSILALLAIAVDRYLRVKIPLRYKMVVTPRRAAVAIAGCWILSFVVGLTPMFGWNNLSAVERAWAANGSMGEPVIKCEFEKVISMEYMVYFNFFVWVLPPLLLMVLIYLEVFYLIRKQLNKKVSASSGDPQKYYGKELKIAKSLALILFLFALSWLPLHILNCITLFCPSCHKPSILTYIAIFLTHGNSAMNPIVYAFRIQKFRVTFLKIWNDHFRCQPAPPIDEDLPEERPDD
Procedure: as §4

hA3AR [3] = target: T1, hA3AR; assay: FCM competitive binding in whole CHO cells using MRS5449 as tracer; conditions: whole CHO cells expressing hA3AR; 5 nM MRS5449 tracer; 90 min at 37° C.
Procedure: Total binding was measured in the absence of the competitor.
as §3
The intensity of fluorescence emission of each sample was measured by using FCM. […] Samples were maintained in the dark during the analysis to avoid photobleaching. MFIs were obtained in the FL-1 channel in log mode. Ten thousand events were analyzed per sample.
Data analysis was performed with the Prism 5 (GraphPad, San Diego Calif.) software. The mean autofluorescence of CHO cells was measured in the absence of the fluorescent ligand.

hA3AR [4] = target: T1, hA3AR; conditions: Table 2; cell membrane preparations using [125I]-AB-MECA; reported literature values; read-out: hA3AR radioligand binding, Ki; cited from earlier work

Chain of A1AR (P30542 whole entry): as above

Compound | Ki (hA3AR [3]) [nM] | Ki (hA2AAR; Table 3) [nM] | Ki (hA3AR [2]; Table 3) [nM] | A1 % inhibition (hA1 AR; Table 3) | melting point | other results
2-(6-Amino-3-iminio-4,5-disulfonato-3H-xanthen-9-yl)-5-((6-(4-(4-((9-chloro-2-(furan-2-yl)-[1,2,4]triazolo[1,5-c]quinazolin-5-yl)amino)-4-oxobutyl)-1H-1,2,3-triazol-1-yl)hexyl)carbamoyl)benzoate [Compound 9] | – | – | – | – | – | binding to CHO cells expressing the A1AR compared with binding to the A3AR (expressed as 100%) (A1AR): 0.3%; binding to HEK cells expressing the A2AAR compared with binding to the A3AR (expressed as 100%) (A2AAR): 0.5%; t1/2 for association (hA3AR [1]; 10 nM MRS5449, CHO cells expressing hA3AR): 53 min; Kd determined through association and dissociation kinetic experiments (hA3AR [1]; 10 nM MRS5449, dissociation initiated after 90 min with 10 μM MRS1220): 6.65 ± 0.55 nM; Nonspecific binding, % of total binding (hA3AR [1]; 10 nM MRS5449, with 10 μM MRS1220 or 10 μM Cl-IB-MECA or in control CHO cells): less than 1%; Kd (hA3AR [1]; FCM saturation binding, […] to 250 nM, nonspecific with 10 μM MRS1220, read-out: Kd (equilibrium binding constant, saturation binding)): 5.15 ± 1.11 nM; fluorescence emission (MFI) of cell-bound ligand (hA3AR [1]; preliminary FCM experiments, hA3AR CHO cells, 1 h at 37° C., concentration about two times Ki): sufficiently high MFI; Ki (hA2AAR; Table 1, HEK293 cells expressing hA2AAR, [3H]CGS21680): 73 nM; Ki (hA3AR [2]; Table 1, CHO cells expressing hA3AR, [125I]I-AB-MECA): 6.4 nM; selectivity for the A3AR (hA3AR [2]; versus hA1 and hA2AARs, radioligand binding Ki): over 10 fold; Kb (A3AR): 4.8 nM; Ki (hA1 AR; Table 1, CHO cells expressing hA1AR, agonist radioligand [3H]R-PIA): 87 nM
OC[C@H]1O[C@@H](n2cnc3c(NC4CCCC4)ncnc32)[C@H](O)[C@@H]1O [CPA, (2R,3R,4S,5R)-2-[6-(cyclopentylamino)purin-9-yl]-5(hydroxymethyl)oxolane-3,4-diol] | 1490 ± 230 | – | – | – | – | –
Nc1nc2ccc(Cl)cc2c2nc(-c3ccco3)nn12 [Compound 7] | 16.1 ± 6.2 | – | – | – | – | –
Cn1cc2c(nc(NC(=O)Nc3ccc(CC(=O)NCCCCCN)cc3)n3nc(-c4ccco4)nc23)n1.O=C(O)C(F)(F)F [Compound 19, N-(5-aminopentyl)-2-(4-(3-(2-(furan-2-yl)-8-methyl-8H-pyrazolo[4,3-e][1,2,4]triazolo[1,5-c]pyrimidin-5-yl)ureido)phenyl)acetamide trifluoroacetate salt] | – | 203 ± 52 | 2.66 ± 0.48 | 6% ± 4% | 170 to 178 °C | –
Cn1cc2c(nc(NC(=O)Nc3ccc(CC(=O)NCCOCCOCCN)cc3)n3nc(-c4ccco4)nc23)n1.O=C(O)C(F)(F)F [Compound 20, 2-(2-(2-(2-(4-(3-(2-(furan-2-yl)-8-methyl-8H-pyrazolo[4,3-e][1,2,4]triazolo[1,5-c]pyrimidin-5-yl)ureido)phenyl)acetamido)ethoxy)ethoxy)ethanamine trifluoroacetate salt] | – | 267 ± 61 | 19.2 ± 3.3 | 17% ± 3% | 152 to 160 °C | –
Cn1cc2c(nc(NC(=O)Nc3ccc(CC(=O)NCCCOCCOCCOCCCN)cc3)n3nc(-c4ccco4)nc23)n1.O=C(O)C(F)(F)F [Compound 21, N-(3-(2-(2-(3-aminopropoxy)ethoxy)ethoxy)propyl)-2-(4-(3-(2-(furan-2-yl)-8-methyl-8H-pyrazolo[4,3-e][1,2,4]triazolo[1,5-c]pyrimidin-5-yl)ureido)phenyl)acetamide trifluoroacetate salt] | – | 328 ± 77 | 10.3 ± 0.4 | 1% ± 1% | 133 to 140 °C | –
C#CCCCCC(=O)Nc1nc2nn(C)cc2c2nc(-c3ccco3)nn12 [Compound 38, N-(2-(furan-2-yl)-8-methyl-8H-pyrazolo[4,3-e][1,2,4]triazolo[1,5-c]pyrimidin-5-yl)hept-6-ynamide] | – | 151 ± 33 | 7.26 ± 1.04 | – | 208 to 215 °C (dec.) | Ki (hA1 AR; Table 3): 891 ± 265 nM
C#CCCCCCC(=O)Nc1nc2nn(C)cc2c2nc(-c3ccco3)nn12 [Compound 39, N-(2-(furan-2-yl)-8-methyl-8H-pyrazolo[4,3-e][1,2,4]triazolo[1,5-c]pyrimidin-5-yl)oct-7-ynamide] | – | 482 ± 141 | 12.8 | 62% ± 3% | 204 to 208 °C (dec.) | –
CCC1CN2C(=O)N(C)c3nc(-c4cc(Cl)cc(Cl)c4Cl)[nH]c3C2=N1 (stereo not shown) [PSB-10, 8-ethyl-1,4,7,8-tetrahydro-4-methyl-2-(2,3,5-trichlorophenyl)-5H-imidazo[2,1-i]purin-5-one monohydrochloride] | 9.54 ± 2.2 | – | – | – | – | Ki (hA3AR [4]): 0.441 nM
Nc1nc(NCCc2ccc(O)cc2)nc2nc(-c3ccco3)nn12 [ZM241385, 4-(2-[7-amino-2-(2-furyl)[1,2,4]triazolo[2,3-a][1,3,5]triazin-5-ylamino]ethyl)phenol] | 300 ± 27 | – | – | – | – | –
